The values that follow are results of earlier work, collected in patent publication US8604084B2, “Method” (GlaxoSmithKline, LLC, priority 2008, dated 2013).

For `CC(=O)Nc1ccc(O)cc1` [Paracetamol], under “adults”, the mean plasma half-life was 2.4 h and the “plasma half-life, range” value was 1.5 to 3.0 h. Further, under “in vivo”, the plasma protein binding result is “not bound to plasma protein to any extent”. Moreover, the absolute oral bioavailability result (independent of dose in the range of 5-20 mg/kg) is on record as “about 80%”. The volume of distribution entry (per body weight) is reported as “about 0.9 litre/kilogram”.
